Experimental findings from patent publication US12139520B2 (priority 2020, dated 2024) are described below.

pEC50: −log10 of the molar value. Where two headings read alike, the source gives them in different places. Bridge positions count the residues as written; N and C are the ends. Square brackets hold non-standard residues; d marks the D form. Peptide text beside a SMILES is read from it. Hyp = O=C(O)[C@@H]1C[C@@H](O)CN1; Cit = NC(=O)NCCC[C@H](N)C(=O)O Some results are limits rather than exact numbers.

Data set [1] deals with hAM1 receptor (Homo sapiens, UniProt O60895+Q16602). As to the kind of experiment: cAMP assay for in vitro receptor activation, hAM1-R. It counts as cell-based. Conditions: for pEC50: read-out: hAM1R EC50. In outline: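 cAMP accumulation was measured in a monoclonal cell line stably overexpressing the hAM1 receptor. Frozen aliquots were thawed and plated at 8000 cells/well in DPBS containing 0.05% casein and 0.5 mM IBMX.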
Sequence of hAM1 receptor (Q16602 23-461): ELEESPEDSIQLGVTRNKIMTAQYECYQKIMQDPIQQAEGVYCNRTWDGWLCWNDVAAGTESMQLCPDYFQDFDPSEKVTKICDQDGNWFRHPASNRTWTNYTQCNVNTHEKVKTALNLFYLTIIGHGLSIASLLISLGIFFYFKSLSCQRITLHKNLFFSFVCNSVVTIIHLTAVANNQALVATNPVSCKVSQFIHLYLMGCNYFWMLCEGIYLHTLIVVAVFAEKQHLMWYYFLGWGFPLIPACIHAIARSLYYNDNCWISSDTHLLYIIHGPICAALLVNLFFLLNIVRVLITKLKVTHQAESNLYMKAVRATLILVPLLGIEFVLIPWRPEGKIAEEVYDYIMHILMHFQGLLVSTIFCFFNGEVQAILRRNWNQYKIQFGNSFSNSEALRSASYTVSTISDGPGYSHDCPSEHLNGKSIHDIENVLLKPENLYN
Sequence of hAM1 receptor (O60895 43-175 partner): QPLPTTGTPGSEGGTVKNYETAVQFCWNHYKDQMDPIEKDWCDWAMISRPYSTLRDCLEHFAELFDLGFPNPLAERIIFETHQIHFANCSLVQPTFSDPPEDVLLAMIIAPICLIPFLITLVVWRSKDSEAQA

The nature of data set [2]: Physical stability of peptide analogues (Thioflavin T fibrillation). It counts as physicochemical. Conditions: maximum ThT signal normalized between hAMY maximum and buffer background; 40° C., shaking, four days; pH 7 per table title. In short, it runs like this:
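Maximum ThT emission at 480 nm, after LOESS smoothing, is given as percent of the span from buffer background to hAMY. Conditions: 50 mM buffer at pH 4 or 7, 4 μM dye, 40 °C, repeated shaking, readings every 10 min for four days.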

Data set [3] concerns the target T1, hAMY3 receptor (Homo sapiens, UniProt O60896+P30988).
T1 sequence (P30988 25-474): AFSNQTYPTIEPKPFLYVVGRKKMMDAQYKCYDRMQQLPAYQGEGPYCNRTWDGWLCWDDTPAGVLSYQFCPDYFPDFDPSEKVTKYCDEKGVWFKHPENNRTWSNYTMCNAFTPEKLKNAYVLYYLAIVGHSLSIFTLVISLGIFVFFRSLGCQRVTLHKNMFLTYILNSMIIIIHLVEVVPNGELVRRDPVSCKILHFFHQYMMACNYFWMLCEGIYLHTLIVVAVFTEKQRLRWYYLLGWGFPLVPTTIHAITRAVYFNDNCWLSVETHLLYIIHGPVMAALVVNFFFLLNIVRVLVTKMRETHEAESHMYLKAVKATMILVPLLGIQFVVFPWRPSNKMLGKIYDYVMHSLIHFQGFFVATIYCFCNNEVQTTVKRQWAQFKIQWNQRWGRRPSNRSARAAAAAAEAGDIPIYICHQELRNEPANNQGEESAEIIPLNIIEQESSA
T1 sequence (O60896 24-148 partner): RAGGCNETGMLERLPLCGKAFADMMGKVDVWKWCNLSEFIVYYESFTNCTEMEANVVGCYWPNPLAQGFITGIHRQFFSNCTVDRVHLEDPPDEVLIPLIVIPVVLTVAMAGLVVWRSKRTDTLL
As to the kind of experiment: cAMP assay for in vitro receptor activation, hAMY3-R. Conditions: for pEC50: read-out: hAMY3R EC50. It counts as cell-based. In outline: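 Monoclonal cell line stably overexpressing hAMY3 receptor, plated in DPBS with 0.05% casein and 0.5 mM IBMX, was stimulated with graded compound doses for 30 min at room temperature. cAMP accumulation was read by time-resolved FRET one hour after adding detection reagents.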

In the case of `CC[C@H](C)[C@H](NC(=O)[C@H](CCC(N)=O)NC(=O)[C@H](Cc1c[nH]cn1)NC(=O)[C@H](C)NC(=O)[C@H](CC(C)C)NC(=O)[C@H](CCCNC(N)=O)NC(=O)[C@H](CCC(N)=O)NC(=O)[C@@H](NC(=O)[C@@H](NC(=O)[C@@H]1CSSC[C@H](NC(=O)CN)C(=O)N[C@@H](CCCNC(=N)N)C(=O)N[C@@H](Cc2ccccc2)C(=O)NCC(=O)N[C@@H]([C@@H](C)O)C(=O)N1)[C@@H](C)O)C(C)C)C(=O)N[C@@H](Cc1ccc(O)cc1)C(=O)N[C@@H](CCC(N)=O)C(=O)N[C@@H](Cc1ccccc1)C(=O)N[C@H](C(=O)N[C@@H](CC(=O)O)C(=O)N[C@@H](CCCCN)C(=O)N[C@@H](CC(=O)O)C(=O)N[C@@H](CCCCN)C(=O)N[C@@H](CC(=O)O)C(=O)N[C@@H](CC(N)=O)C(=O)N[C@H](C(=O)N[C@@H](C)C(=O)N1CCC[C@H]1C(=O)N[C@@H](CCCNC(=N)N)C(=O)N[C@H](C(=O)N[C@@H](CCCCN)C(=O)N[C@H](C(=O)N[C@@H](CO)C(=O)N1CCC[C@H]1C(=O)N[C@@H](CCC(N)=O)C(=O)NCC(=O)N1C[C@H](O)C[C@H]1C(N)=O)[C@@H](C)CC)[C@@H](C)O)C(C)C)[C@@H](C)O` [compound 294] (H-GCRFGTCTVQ[Cit]LAHQIYQFTDKDKDNVAPRTKISPQG[Hyp]-NH2; disulfide 2-7), the pEC50 was under 5.30 in data set [1] (cAMP assay, hAM1 receptor) and 10.35 in data set [3] (cAMP assay, hAMY3 receptor). Further, the “Max ThT signal (%)” value in data set [2] is 16.850%.
As to `CC[C@H](C)[C@H](NC(=O)[C@H](CCC(N)=O)NC(=O)[C@H](Cc1c[nH]cn1)NC(=O)[C@H](C)NC(=O)[C@H](CC(C)C)NC(=O)[C@H](CCCNC(=N)N)NC(=O)[C@H](CCC(N)=O)NC(=O)[C@@H](NC(=O)[C@@H](NC(=O)[C@@H]1CSSC[C@H](NC(=O)CN)C(=O)N[C@@H](CCCNC(=N)N)C(=O)N[C@@H](Cc2ccccc2)C(=O)NCC(=O)N[C@@H]([C@@H](C)O)C(=O)N1)[C@@H](C)O)C(C)C)C(=O)N[C@@H](Cc1ccc(O)cc1)C(=O)N[C@@H](CCC(N)=O)C(=O)N[C@@H](Cc1ccccc1)C(=O)N[C@H](C(=O)N[C@@H](CC(=O)O)C(=O)N[C@@H](CCCCN)C(=O)N[C@@H](CC(=O)O)C(=O)N[C@@H](CCCCN)C(=O)N[C@@H](CC(=O)O)C(=O)N[C@@H](CC(N)=O)C(=O)N[C@H](C(=O)N[C@@H](C)C(=O)N1CCC[C@H]1C(=O)N[C@@H](CCCNC(=N)N)C(=O)N[C@@H](CO)C(=O)N[C@@H](CCCCN)C(=O)N[C@H](C(=O)N[C@@H](CO)C(=O)N1CCC[C@H]1C(=O)N[C@@H](CCC(N)=O)C(=O)NCC(=O)N1C[C@H](O)C[C@H]1C(N)=O)[C@@H](C)CC)C(C)C)[C@@H](C)O` [SEQ ID NO: 169, GCRFGTCTVQRLAHQIYQFTDKDKDNVAPRSKISPQG Hyp] (H-GCRFGTCTVQRLAHQIYQFTDKDKDNVAPRSKISPQG[Hyp]-NH2; disulfide 2-7; N-terminus assumed), the pEC50 was 5.53 in data set [1] (cAMP accumulation, cells stably overexpressing hAM1 receptor, 30 min stimulation) and 10.20 in data set [3] (cAMP accumulation, cells stably overexpressing hAMY3 receptor, 30 min stimulation). Also, the “decrease of potency on AM1R compared to hAM15-52” value in data set [1] (relative to SEQ ID NO: 1) is “approximately 2500 fold”. Further, the “Max ThT signal (%)” value in data set [2] was determined as 2.700%. In addition, the “improvement of potency on AMY3R compared to hAM15-52” value in data set [3] (relative to SEQ ID NO: 1) was “approximately 20 fold”.
In the case of `CC[C@H](C)[C@H](NC(=O)[C@H](CCC(N)=O)NC(=O)[C@H](Cc1c[nH]cn1)NC(=O)[C@H](C)NC(=O)[C@H](CC(C)C)NC(=O)[C@H](Cc1c[nH]c2ccccc12)NC(=O)[C@H](CCC(N)=O)NC(=O)[C@@H](NC(=O)[C@@H](NC(=O)[C@@H]1CSSC[C@H](NC(=O)[C@@H](N)CCCCN)C(=O)N[C@@H](CC(N)=O)C(=O)N[C@@H]([C@@H](C)O)C(=O)N[C@@H](C)C(=O)N[C@@H]([C@@H](C)O)C(=O)N1)[C@@H](C)O)C(C)C)C(=O)N[C@@H](Cc1ccc(O)cc1)C(=O)N[C@@H](CCC(N)=O)C(=O)N[C@@H](Cc1ccccc1)C(=O)N[C@@H](CC(=O)O)C(=O)N[C@@H](CCCCN)C(=O)N[C@@H](CC(=O)O)C(=O)N[C@@H](CCCCN)C(=O)N[C@@H](CC(=O)O)C(=O)N[C@@H](CC(N)=O)C(=O)N[C@H](C(=O)N[C@@H](C)C(=O)N1CCC[C@H]1C(=O)N1CCC[C@H]1C(=O)N[C@H](C(=O)N[C@@H](CC(N)=O)C(=O)N[C@H](C(=O)NCC(=O)N[C@@H](CO)C(=O)N[C@@H](CC(N)=O)C(=O)NCC(=O)N1C[C@H](O)C[C@H]1C(N)=O)C(C)C)[C@@H](C)O)C(C)C` [compound 329] (H-KCNTATCTVQWLAHQIYQFDKDKDNVAPPTNVGSNG[Hyp]-NH2; disulfide 2-7; N-terminus assumed), the pEC50 in data set [1] (cAMP assay, hAM1 receptor) was under 5.30; in data set [3] (cAMP assay, hAMY3 receptor) it was 10.49. In addition, the “Max ThT signal (%)” value in data set [2] was found to be 6.350%.
The matching figures for `CC[C@H](C)[C@H](NC(=O)[C@H](CCC(N)=O)NC(=O)[C@H](Cc1c[nH]cn1)NC(=O)[C@H](C)NC(=O)[C@H](CC(C)C)NC(=O)[C@H](Cc1c[nH]c2ccccc12)NC(=O)[C@H](CCC(N)=O)NC(=O)[C@@H](NC(=O)[C@@H](NC(=O)[C@@H]1CSSC[C@H](NC(=O)CN)C(=O)N[C@@H](CCCNC(=N)N)C(=O)N[C@@H]([C@@H](C)O)C(=O)NCC(=O)N[C@@H]([C@@H](C)O)C(=O)N1)[C@@H](C)O)C(C)C)C(=O)N[C@@H](Cc1ccc(O)cc1)C(=O)N[C@@H](CCC(N)=O)C(=O)N[C@@H](Cc1ccccc1)C(=O)N[C@H](C(=O)N[C@@H](CC(=O)O)C(=O)N[C@@H](CCCCN)C(=O)N[C@@H](CC(=O)O)C(=O)N[C@@H](CCCCN)C(=O)N[C@@H](CC(=O)O)C(=O)N[C@@H](CC(N)=O)C(=O)N[C@H](C(=O)N[C@@H](C)C(=O)N1CCC[C@H]1C(=O)N[C@@H](CCCNC(=N)N)C(=O)N[C@H](C(=O)N[C@@H](CC(N)=O)C(=O)N[C@H](C(=O)N[C@@H](CO)C(=O)N1CCC[C@H]1C(=O)N[C@@H](CC(N)=O)C(=O)NCC(=O)N1C[C@H](O)C[C@H]1C(N)=O)C(C)C)[C@@H](C)O)C(C)C)[C@@H](C)O` [compound 358] (H-GCRTGTCTVQWLAHQIYQFTDKDKDNVAPRTNVSPNG[Hyp]-NH2; disulfide 2-7; N-terminus assumed): under 5.30, 10.15 and 24.350%.
As to `CC[C@H](C)[C@H](NC(=O)[C@H](CCC(N)=O)NC(=O)[C@H](Cc1c[nH]cn1)NC(=O)[C@H](C)NC(=O)[C@H](CC(C)C)NC(=O)[C@H](CCCNC(=N)N)NC(=O)[C@H](CCC(N)=O)NC(=O)[C@@H](NC(=O)[C@@H](NC(=O)[C@@H]1CSSC[C@H](NC(=O)CN)C(=O)N[C@@H](CCCNC(=N)N)C(=O)N[C@@H]([C@@H](C)O)C(=O)NCC(=O)N[C@@H]([C@@H](C)O)C(=O)N1)[C@@H](C)O)C(C)C)C(=O)N[C@@H](Cc1c[nH]cn1)C(=O)N[C@@H](CCC(N)=O)C(=O)N[C@@H](Cc1ccccc1)C(=O)N[C@H](C(=O)N[C@@H](CC(=O)O)C(=O)N[C@@H](CCCCN)C(=O)N[C@@H](CC(=O)O)C(=O)N[C@@H](CCCCN)C(=O)N[C@@H](CC(=O)O)C(=O)N[C@@H](CC(N)=O)C(=O)N[C@H](C(=O)N[C@@H](C)C(=O)N1CCC[C@H]1C(=O)N[C@@H](CCCNC(=N)N)C(=O)N[C@@H](CO)C(=O)N[C@@H](CCCCN)C(=O)N[C@H](C(=O)N[C@@H](CO)C(=O)N1CCC[C@H]1C(=O)N[C@@H](CCC(N)=O)C(=O)N[C@H](C(=O)N1C[C@H](O)C[C@H]1C(N)=O)[C@@H](C)O)[C@@H](C)CC)C(C)C)[C@@H](C)O` [compound 228] (H-GCRTGTCTVQRLAHQIHQFTDKDKDNVAPRSKISPQT[Hyp]-NH2; disulfide 2-7; N-terminus assumed), the pEC50 in data set [1] (cAMP assay, hAM1 receptor) was under 5.30. In data set [2], the “Max ThT signal (%)” value worked out at 19.600%.

In general, pEC50 refers to −log10 of the EC50, conventionally taken in molar units.
